# Patent US9611230B2, “1,3,4-oxadiazole benzoic acid compounds and their use for nonsense suppression and the treatment of disease” (PTC Therapeutics, Inc., priority 2004, dated 2017)
row,Structure (SMILES),melting point
1,Cc1ccc(-c2noc(-c3cccc(C(=O)O)c3)n2)cc1 [Compound 512],243 to 244 °C
2,"O=C(O)c1cccc(-c2nnc(-c3ccc(N4CCOCC4)cc3)o2)c1 [Compound No. 82, 3-[5-(4-morpholin-4-yl-phenyl)-[1,3,4]oxadiazol-2-yl]benzoic acid]",235 to 237 °C
3,O=C(O)c1cccc(-c2ncc(-c3cccc(Cl)c3)o2)c1 [Compound 583],220 to 222 °C
4,"CC(C)c1ccc(-c2coc(-c3cccc(C(=O)O)c3)c2C(=O)O)cc1 [Compound No. 314, 2-(3-carboxyphenyl)-4-(4-isopropylphenyl)furan-3-carboxylic acid]",236 to 239 °C
5,O=C(O)c1ccc(-c2ncc(-c3cc(F)cc(F)c3)o2)cc1 [Compound 641],273 to 274 °C
6,O=C(O)c1cccc(-c2nnc(-c3ccc4[nH]ccc4c3)o2)c1 [Compound 316],> 270 °C
7,"O=C(O)c1cccc(-c2nc(-c3ccccc3F)no2)c1 [Compound No. 506, 3-[3-(2-fluorophenyl)-[1,2,4]oxadiazole-5-yl] benzoic acid]",233 to 234 °C
8,O=C(O)c1cccc(-c2ncc(-c3cccc(F)c3)o2)c1 [Compound 580],223 to 224.5 °C
9,O=C(O)c1cccc(-c2cc(-c3ccc(F)cc3)on2)c1 [Compound 476],266.5 to 268 °C
10,"Cc1ccc(S(=O)(=O)Nc2cccc(-c3nnc(-c4ccc(C(=O)O)cc4)o3)c2)cc1 [Compound 13, 4-{5-[3-(toluene-4-sulfonylamino)phenyl]-[1,3,4]oxadiazol-2-yl}benzoic acid]",> 275 °C
11,O=C(O)c1ccc(-c2nnc(-c3ccnc(Br)c3)o2)cc1 [Compound 292],275 to 278 °C
12,"CC(C)c1ccc(-c2cnc(-c3cccc(C(=O)O)c3)s2)cc1 [Compound No. 310, 3-[5-(4-Isopropyl-phenyl)thiazol-2-yl]benzoic acid]",218 to 220 °C
13,O=C(O)c1ccc(-c2cc(-c3ccccc3F)on2)cc1 [Compound 529],292.5 to 293.5 °C
14,O=C(O)Cc1ccc(-c2ncc(-c3ccc(F)cc3F)o2)cc1 [Compound 650],191 to 193 °C
15,Cc1ccc(-c2cc(-c3cccc(C(=O)O)c3)on2)cc1 [Compound 505],253 to 254 °C
16,"CC(C)c1ccc(NC(=O)Nc2cccc(-c3nnc(-c4ccc(C(=O)O)cc4)o3)c2)cc1 [Compound No. 60, 4-(5-{3-[3-(4-isopropylphenyl)ureido]phenyl}-[1,3,4]oxadiazol-2-yl)benzoic acid]",> 270 °C
17,COc1ccc(-c2cnc(-c3ccc(C(=O)O)cc3)o2)cc1OC [Compound 547],241 to 243 °C
18,CN(C)c1ccccc1-c1nnc(-c2cccc(C(=O)O)c2)o1 [Compound 605],170 to 172 °C
19,O=C(O)c1ccc(-c2cc(-c3ccc(Cl)cc3)on2)cc1 [Compound 533],273 to 275 °C
20,O=C(O)c1ccc(-c2ncc(-c3ccc(OC(F)(F)F)cc3)o2)cc1 [Compound 546],222 to 224 °C
21,"CC(C)c1ccc(-c2nnc(-c3ccc(C(=O)O)cc3)s2)cc1 [Compound No. 324, 4-[5-(4-isopropylphenyl)-[1,3,4]thiadiazol-2-yl]benzoic acid]",> 300 °C
22,O=C(O)c1ccc(-c2ncc(-c3ccccc3F)o2)cc1 [Compound 550],272 to 273 °C
23,Cc1ccc(-c2cc(-c3cccc(C(=O)O)c3)no2)cc1 [Compound 573],257 to 259 °C
24,O=C(O)c1ccc(-c2ncc(-c3ccc(F)cc3)o2)cc1 [Compound 554],245 to 246 °C
25,COc1cccc(-c2cnc(-c3cccc(C(=O)O)c3)o2)c1 [Compound 594],207 to 208 °C

row,Structure (SMILES),melting point
1,CC(C)c1ccc(NC(=O)c2nnc(-c3ccc(C(=O)O)cc3)o2)cc1 [Compound 284],282 to 291 °C
2,CS(=O)(=O)Nc1cccc(-c2nnc(-c3ccc(C(=O)O)cc3)o2)c1 [Compound 12],> 270 °C
3,CN(C)c1ccc(Cc2nnc(-c3cccc(C(=O)O)c3)o2)cc1 [Compound 85],220 to 222 °C
4,"CC(C)c1ccc(-c2nsc(-c3cccc(C(=O)O)c3)n2)cc1 [Compound No. 326, 3-[3-(4-isopropylphenyl)-[1,2, 4]thiadiazol-5-yl]benzoic acid]",166 to 168 °C
5,O=C(O)c1cccc(-c2cc(-c3ccc(Br)cc3F)on2)c1 [Compound 482],283.5 to 285 °C
6,CN(C)C(=O)c1ccc(-c2nnc(-c3cccc(C(=O)O)c3)o2)cc1 [Compound 279],228 to 235 °C
7,CC(C)c1ccc(-c2nnc(-c3ccc(C(=O)O)cc3)o2)cc1 [Compound 5],262 to 265 °C
8,O=C(O)c1ccc(-c2cc(-c3cccc(F)c3)no2)cc1 [Compound 536],319 to 321 °C
9,CN(C)c1ccc(Cc2nnc(-c3ccc(C(=O)O)cc3)o2)cc1 [Compound 86],243 to 245 °C
10,O=C(O)c1cccc(-c2nc(-c3ccccc3F)n[nH]2)c1 [Compound 425],> 310 °C
11,O=C(O)c1cccc(-c2nnc(-c3ccc(Br)nc3)o2)c1 [Compound 293],274 to 275 °C
12,O=C(O)c1ccc(-c2ncc(-c3ccsc3)o2)cc1 [Compound 558],246 to 247 °C
13,O=C(O)c1cccc(-c2nc(-c3ccc(-c4ccccc4)cc3)n[nH]2)c1 [Compound 429],> 300 °C
14,CC(=O)Nc1cccc(-c2nnc(-c3ccc(C(=O)O)cc3)o2)c1 [Compound 14],> 275 °C
15,Cc1cccc(-c2ccc(-c3nnc(-c4cccc(C(=O)O)c4)o3)cn2)c1 [Compound 282],274 to 275 °C
16,COC(=O)c1cccc(-c2cc(-c3ccccc3F)on2)c1 [Compound 464],112 to 113.5 °C
17,"CC(C)c1ccc(-c2nc(-c3cccc(C(=O)O)c3)cs2)cc1 [Compound No. 312, 3-[2-(4-isopropylphenyl)thiazol-4-yl]-benzoic acid]",193 to 195 °C
18,O=C(O)c1cccc(-c2nnc(-c3ccc4cc[nH]c4c3)o2)c1 [Compound 317],> 290 °C (dec.)
19,O=C(O)c1cccc(-c2ncc(-c3cccc(OC(F)(F)F)c3)o2)c1 [Compound 587],210 to 211 °C
20,O=C(O)c1ccc(-c2ncc(-c3cccc(Cl)c3)o2)cc1 [Compound 556],272 to 274 °C
21,O=C(O)c1ccc(-c2ncc(-c3cccc(F)c3)o2)cc1 [Compound 553],264 to 265 °C
22,CC(C)(C)C1CCC(c2nnc(-c3cccc(C(=O)O)c3)o2)CC1 (centres unmarked) [Compound 622],245 to 247 °C
23,"COc1ccc(-c2n[nH]c(-c3cccc(C(=O)O)c3)n2)cc1 [Compound No. 424, 3-[5-(4-methoxy-phenyl)-2H-[1,2,4]triazol-3-yl]-benzoic acid]",287 to 289 °C
24,O=C(O)c1cccc(-c2nc(-c3ccccc3)n[nH]2)c1 [Compound 427],> 300 °C
25,O=C(O)c1cccc(-c2ncc(-c3ccccc3Cl)o2)c1 [Compound 582],236 to 237 °C

row,Structure (SMILES),melting point
1,CCOc1ccc(-c2cnc(-c3ccc(C(=O)O)cc3)o2)cc1 [Compound 638],245 to 246 °C
2,CN(C)C(=O)c1ccc(-c2nnc(-c3ccc(C(=O)O)cc3)o2)cc1 [Compound 278],> 310 °C
3,CN(C)c1cccc(-c2nnc(-c3cccc(C(=O)O)c3)o2)c1 [Compound 2],187 to 189 °C
4,O=C(O)c1cccc(-c2ncc(-c3ccc(F)cc3)o2)c1 [Compound 581],255 to 256 °C
5,CC(C)c1ccc(-c2cc(-c3cccc(C(=O)O)c3)on2)cc1 [Compound 291],200 to 212 °C
6,O=C(O)c1cccc(-c2nnc(-c3cccc4[nH]ccc34)o2)c1 [Compound 318],> 310 °C
7,CN(C)c1ccc(-c2nnc(-c3cccc(C(=O)[O-])c3)o2)cc1.[Na+] [Compound 624],227 to 235 °C (dec.)
8,O=C(O)c1ccc(-c2ncc(-c3ccccc3Cl)o2)cc1 [Compound 555],276 to 277 °C
9,CC(C)(C)c1ccc(-c2cnc(-c3ccc(C(=O)O)cc3)o2)cc1 [Compound 636],258 to 259 °C
10,CC(C)c1ccc(NC(=O)c2nnc(-c3cccc(C(=O)O)c3)o2)cc1 [Compound 283],220 to 226 °C
11,O=C(O)c1ccc(-c2ncc(-c3cccc(O)c3)o2)cc1 [Compound 648],291 to 292 °C
12,O=C(O)c1cccc(-c2cc(-c3ccccc3F)no2)c1 [Compound 501],231 to 232 °C
13,O=C(O)c1cccc(-c2noc(-c3ccccc3)c2C=NO)c1 [Compound 486],198 to 202 °C
14,Cc1ccc(-c2cc(-c3ccc(C(=O)O)cc3)no2)cc1 [Compound 534],297.5 to 299 °C
15,Cc1ccc(-c2n[nH]c(-c3cccc(C(=O)O)c3)n2)cc1 [Compound 457],> 300 °C
16,"CC(C)c1ccc(-c2csc(-c3cccc(C(=O)O)c3)c2)cc1 [Compound No. 327, 3-[4-(4-isopropylphenyl)-thiophen-2-yl]-benzoic acid]",220 to 222 °C
17,COc1ccccc1-c1cnc(-c2cccc(C(=O)O)c2)o1 [Compound 593],244 to 246 °C
18,O=C(O)c1cccc(-c2noc(-c3ccccc3)c2CO)c1 [Compound 484],215 to 216 °C
19,O=C(O)c1ccc(-c2ncc(-c3cccc(OC(F)(F)F)c3)o2)cc1 [Compound 542],284 to 285 °C
20,O=C(O)c1cccc(-c2nc(-c3ccc4c(c3)OCO4)no2)c1 [Compound 510],245 to 246 °C
21,O=C(O)c1ccc(-c2nnc(-c3ccc(C(=O)N4CCCCC4)cc3)o2)cc1 [Compound 286],> 310 °C
22,O=C(O)c1cccc(-c2nnc(-c3ccccc3)o2)c1 [Compound 615],190 to 192 °C
23,O=C(O)c1cccc(-c2nnc(-c3ccc(C(=O)N4CCCCC4)cc3)o2)c1 [Compound 285],253 to 256 °C
24,CC(C)(C)c1ccc(-c2cnc(-c3cccc(C(=O)O)c3)o2)cc1 [Compound 592],224 to 225 °C
